Legend:
[1] = human
[2] = human; remark: listed apart in the source
[3] = human; remark: listed apart in the source
[4] = human, serum
[5] = human; remark: listed apart in the source
[6] = human; remark: listed apart in the source
[7] = human; remark: listed apart in the source
[8] = human; remark: listed apart in the source
[9] = Highest frequency of acute liver toxicity observed during clinical trials, expressed as a percentage. [column '% AIGUE' in source]; conditions: human
[10] = human, serum, 4383 h
[11] = human; remark: listed apart in the source
[12] = Times to onset, minimal and maximal, observed in the indexed observations. [column 'DELAI' in source]; conditions: human
[13] = Highest frequency of moderate liver toxicity observed during clinical trials, expressed as a percentage. [column '% BIOL' in source]; conditions: human
[14] = human; remark: listed apart in the source
[15] = human, serum; remark: listed apart in the source
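Wherever Hepatotoxicity (association with vascular disease) is given: count of indexed literature references reporting vascular liver injury in humans, e.g. peliosis hepatitis, hepatic veno-occlusive disease or Budd-Chiari syndrome.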
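Wherever Hepatotoxicity (benign tumour) is given: value is a count of indexed literature references citing a benign tumour confirmed by histopathology.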
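Wherever Hepatotoxicity (choleostasis) is given: human cholestatic liver injury, shown by histopathology or by peak ALT or AST elevation over alkaline phosphatase ratio below 2, value counts indexed literature reports.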
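Wherever Hepatotoxicity (chronic liver disease) is given: chronic liver injury confirmed by histopathology or persistently raised serum aminotransferase activity beyond 6 months, value given as the count of indexed literature references.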
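Wherever Hepatotoxicity (cirrhosis) is given: value is a count of indexed literature references reporting cirrhosis confirmed by histopathology.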
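Wherever Hepatotoxicity (cytolytic) is given: human cytolytic liver injury, shown by histopathology or by a ratio above 5 of peak ALT or AST elevation to alkaline phosphatase elevation, value counts indexed references.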
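Wherever Hepatotoxicity (granulomatous hepatitis) is given: value is a count of indexed literature references reporting granulomatous liver disease confirmed by histopathology.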
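Wherever Hepatotoxicity (malignant tumour) is given: malignant tumour confirmed by histopathology, value gives the count of indexed literature references reporting it.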
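Wherever Hepatotoxicity (severe hepatitis) is given: human clinical data: severe hepatitis, meaning potentially life-threatening liver failure or clinically observed cases, the value counts how many indexed literature references report it.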
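Wherever Hepatotoxicity (steatosis) is given: steatosis confirmed by histopathology, value is the count of indexed references.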

SMILES	Hepatotoxicity (severe hepatitis) [1]	Hepatotoxicity (cirrhosis) [2]	Hepatotoxicity (choleostasis) [3]	Hepatotoxicity (moderate) [4]	Hepatotoxicity (granulomatous hepatitis) [5]	Hepatotoxicity (steatosis) [6]	Hepatotoxicity (cytolytic) [7]	Hepatotoxicity (malignant tumour) [8]	Hepatotoxicity (acute) [9]	Hepatotoxicity (chronic liver disease) [10]	Hepatotoxicity (association with vascular disease) [11]	Hepatotoxicity (time to onset) [12]	Hepatotoxicity (moderate) [13]	Hepatotoxicity (benign tumour) [14]	Hepatotoxicity (acute) [15]	Hepatotoxicity (severe hepatitis) ([1]; Liver)	Hepatotoxicity (acute) ([9]; Liver)	Hepatotoxicity (moderate) ([13]; Liver)
CCOC(=O)C(C)(CC)Oc1ccc(Cc2ccc(Cl)cc2)cc1 (stereo not given) [BECLOBRATE]	2	0	0	1	0	0	1	0	0%	0	0	4 months - 6.5 months	1%	0	2			
CCOC(=O)[C@H](CCc1ccccc1)N[C@H]1CCc2ccccc2N(CC(=O)O)C1=O [BENAZEPRIL]	1	0	0	0	0	0	1	0	0%	0	0	14 months	0%	0	2			
CC(=O)Nc1ccc(OC(=O)c2ccccc2OC(C)=O)cc1 [BENORILATE]	1	0	0	0	0	0	2	0	0%	0	0	3 weeks	0%	0	2			
NC(CO)C(=O)NNCc1ccc(O)c(O)c1O (stereo not given) [BENSERAZIDE]	0	0	0	0	0	0	0	0	3.3%	0	0	< 3 months	0%	0	1			
O=C1CN=C(c2ccccc2)c2c(sc3c2CCCC3)N1 [BENTAZEPAM]	0	1	0	1	0	0	2	0	0%	3	0	1 month - 6 months	0%	0	2			
CCc1oc2ccccc2c1C(=O)c1cc(I)c(O)c(I)c1 [BENZIODARONE]	0	0	3	0	0	0	0	0	0%	0	0	1 month - 4 months	0%	0	3			
CC(C)COCC(CN(Cc1ccccc1)c1ccccc1)N1CCCC1 (stereo not given) [BEPRIDIL]	0	0	0	3	0	1	1	0	0%	0	0	4 days - 20 days	2.8%	0	1			
CC(O)(CS(=O)(=O)c1ccc(F)cc1)C(=O)Nc1ccc(C#N)c(C(F)(F)F)c1 (stereo not given) [BICALUTAMIDE]	1	0	0	1	0	0	1	0	0%	0	0	2 days	6%	0	1			
CC(C)(S)C(=O)N[C@@H](CS)C(=O)O [BUCILLAMINE]	0	0	0	5	0	0	0	0	0%	0	0	2 weeks	9.4%	0	0			
CCCC1O[C@@H]2C[C@H]3[C@@H]4CCC5=CC(=O)C=C[C@]5(C)[C@H]4[C@@H](O)C[C@]3(C)[C@]2(C(=O)CO)O1 (stereo not given in full) [BUDESONIDE]	0	0	0	0	0	0	1	0	0%	0	0	19 days	0%	0	1			
CCCCNc1cc(C(=O)O)cc(S(N)(=O)=O)c1Oc1ccccc1 [BUMETANIDE]		0	0	3	0	0	0	0		0	0	2 weeks - 6 months		0	0	0	0%	1.1%
O=C1CC2(CCCC2)CC(=O)N1CCCCN1CCN(c2ncccn2)CC1 [BUSPIRONE]	0	0	1	2	0	0	1	0	0%	0	0	26 days	5.3%	0	1			
C=CCC1(CC(C)C)C(=O)NC(=O)NC1=O [BUTALBITAL]	0	0	0	0	0	0	1	0	0%	0	0	2.5 months	0%	0	1			
CN(C)C(=O)OC1N=C(c2ccccc2)c2cc(Cl)ccc2N(C)C1=O (stereo not given) [CAMAZEPAM]	0	0	0	0	0	0	1	0	0%	0	0	3 months	0%	0	1			
CCCC(C)(COC(N)=O)COC(=O)NC(C)C (stereo not given) [CARISOPRODOL]	0	0	0	0	0	0	1	0	0%	0	0	2 weeks	0%	0	1			

— ChEMBL document CHEMBL3137667, “[Drug-induced liver injury; fourteenth updated edition of the bibliographic database of liver injuries and related drugs]” (Gastroenterol Clin Biol, 2004)
